Measured values taken from patent US4747845A, “Synthetic resin matrix system for the extended delivery of drugs” (priority 1986, dated 1988).

Columns and labels:
[1] = dog, in vivo
Procedure: The derived pharmacokinetic parameters included: 1, time for the maximum concentration to be reduced by 1/2 (t-1/2); 2, area under the plasma concentration curve (AUC); 3, maximum plasma concentration (C-max); 4, time to reach C-max (t-max); 5, mean resident time (MRT); and 6, percent of recovery of administered H3 dose in urine in 72 hours (U%).
Here, determination was made of the release characteristics of the DIMAC synthetic resin matrix system embodied with the drug urapidil fumerate (UPD) following oral administration to conscious dogs, in an identical procedure to that described in EXAMPLE 4.
The UPD dose administered in DIMAC matrix was 10 mg/kg, and the same dose was used in the control solution.

[2] = dog, in vivo, po
Procedure: Approximately 75 uCi of isotopically labelled DTZ or UPD was blended into their respective slurry prior to filling the gelatin capsule. The isotopically labelled compositions were allowed to set-up prior to rejoining the filled upper and lower capsule compartments. Curing proceeded overnight, with animal dosing performed at 8:00 a.m. the following morning. The control DIMAC matrix samples without drug were prepared in an identical manner.
Six conscious dogs, three males and three females, one of each sex in three treatment groups were used in this study. The oral dose of DTZ was 30 mg/kg, while that for UPD was 10 mg/kg.
Blood samples were drawn at 0-time immediately prior to dosing, and at 0.5, 1.0, 2.0, 4.0, 6.0, 8.0, 24, and 32 hours after oral administration of the three test preprations. One ml of plasma, suitably prepared was counted for 5-minutes for level of radioactivity (dpm).

Substance	magnitude of delayed and extended duration release indices compared with EXAMPLE 3 [1]	percent change of t1/2 of DIMAC from solution control [1]	statistical significance of change over solution control [1]	percent change of U % (recovery of administered dose in urine in 72 hours) of DIMAC from solution control ([1]; 4320 min)	percent of dose released from DIMAC matrix during the 8-hour period [2]	time of peak plasma radioactivity ([2]; 10 mg/kg) [h]
urapidil fumerate [DIMAC matrix UPD]	far less	+40%	statistically significant change in C-max, t-max, MRT, and t-1/2	+8%		
urapidil fumerate [UPD]					at least 50%	2
